Results: the NIST ThermoML archive (doi:10.1021/je049762q)
± gives the expanded uncertainty stated by the source.

Key:
[1] = Molar enthalpy of transition or fusion

SMILES	Triple point temperature (Crystal) [K]	Molar enthalpy of transition or fusion ([1]; Crystal) [kJ/mol]	Triple point temperature (Crystal 1) [K]	Triple point temperature (Crystal 2) [K]	Triple point temperature (Crystal 3) [K]	Molar enthalpy of transition or fusion ([1]; Crystal 1) [kJ/mol]	Molar enthalpy of transition or fusion ([1]; Crystal 2) [kJ/mol]	Molar enthalpy of transition or fusion ([1]; Crystal 3) [kJ/mol]
Brc1cc(Br)cc(Br)c1 [1,3,5-tribromobenzene]	394.96 ± 0.16	21.72 ± 0.051						
Clc1cc(Cl)cc(Cl)c1 [1,3,5-trichlorobenzene]	335.92 ± 0.09	17.56 ± 0.09						
Brc1ccc(Br)cc1 [1,4-dibromobenzene]	360.48 ± 0.09	20.39 ± 0.066						
Clc1ccc(Cl)cc1 [1,4-dichlorobenzene]			326.24 ± 0.09	306 ± 2	275 ± 0.4	17.91 ± 0.064	0.181 ± 0.051	1.24 ± 0.051
